Here are results for four compounds from patent US20090312380A1, “NOVEL COMPOSITIONS AND METHODS” (priority 2006, published 2009).

Format in all cases: physicochemical
Series [1] can be described thus: Powder dissolution in 0.1N HCl (37° C.). The settings on record: for dissolution characteristics: 0.1N HCl, 37° C., FIG. 4, compared with samples B and C; for dissolution kinetics: in the media, FIGS. 4 and 5. The protocol: FIG. 4: Powder dissolution profiles in 0.1N HCl (37° C.) of samples of irbesartan. Dissolution experiments were executed in 0.1N HCt (37° C.) on the four micronised samples A-D of irbesartan. […] Thus with all other parameters being equal, it can be seen that the improved dissolution profile directly correlates to the increased water surface area of samples A and D.

Series [2] can be described thus: Water surface area from GVS data, BET model. The settings on record: for Water Surface Area (WSA): BET adsorption model, GVS adsorption runs; for water surface area (ranking): Table 6, compared to samples B or C; for surface hydrophilicity group predicted from the WSA data: WSA data of Table 6 (ESW and BET); for number of hydrophilic domains: from ESW and BET water surface areas and GVS results; for WSA compared with SSA: water surface area versus specific surface area (nitrogen). The text has this:
The multilayer sorption model according to Brunauer, Emmet and Teller Journal of the American Chemical Society, vol. 60, pp. 309, 1938) is described as follows:
with: n=number of moles adsorbed at p/p, (=RH/100) • nmono=apparent number of moles adsorbed in monolayer • p/ps=gas partial pressure (=RH/100 in the GVS experiments) • C=BET constant (measure for the strength of the sorption interaction)
From the sorption kinetics, the equilibrium weight changes at the end of each RH stage are extracted to compile xy-data pairs (RH vs. adsorbed amount).
From this, a plot of [p/ps]/[n(1−p/ps)] versus p/ps should give a linear correlation with intercept b=1/[C(nmono)] and slope m=b(C−1).
Evaluation is done by using 5-7 data points (RH vs. adsorbed amount) in the RH range 5-30% RH, which are then used for linear regression to obtain the intercept b and slope m (as explained above). The data is considered acceptable, if the correlation coefficient (r^2) of the linear regression is >0.95, although a correlation coefficient of ≧0.99 should be obtainable for most data sets. From slope and intercept, one can calculate the BET constant C and apparent monolayer amount nmono.
The calculated monolayer coverage nmono obtained from the application of the gas sorption models to GVS data can be re-calculated to water surface area Awater, taking into account the mean cross sectional area aH2O occupied by one water molecule upon adsorption:
with: Awater=water surface area [m^2/g] • aH2O mean cross sectional area of one water molecule adsorbed 10^−19 m^2/molecule • nmono=apparent amount adsorbed in the monolayer [mol] • NL=Lochschmidt number=6×10^23 molecules/mol • mdry (sample)=dry mass of sample [g]
The determination of the BET water surface area is illustrated for sample A as follows. From the relative humidity data and the mass difference, p/ps and [p/ps]/[n(1−p/ps)] were calculated to give the values shown in Table 4.
A plot of p/ps versus [p/ps]/[n(1−p/ps)] was then generated (see FIG. 2) allowing the slope (m=26.726) and the intercept (b=3.8219) to be calculated. Using the equations b=1/[C(nmono)] and m=b(C−1), the apparent monolayer amount, n^mono, was calculated to equate to 0.0327 mg. This in turn led to a WSA of 5.9 m^2/g, using equation (A4) above, wherein mdry=18.57 mg.

A short description of series [3]: Particle size profile of irbesartan samples. The following applies: for D (v, 0.1) particle size: 10 % of particles smaller; for D (v, 0.5) particle size: 50 % of particles smaller; for D (v, 0.9) particle size: 90 % of particles smaller. The protocol: The particle size profile of samples A-D of irbesartan were tested (see Table 1). It can be seen that across the range the particle sizes were very similar. Thus any difference in dissolution kinetics of samples from the relevant batch cannot be attributed to particle size. The D values represent particle size medians from the detected particle size distribution curves. D(v, x) means that 100x % of particles are smaller than the corresponding D value, and 100-100x % of particles are larger. The samples were also subjected to the Brunauer-Emmett-Teller (BET)-nitrogen adsorption analysis to determine the total surface area of the samples as follows: […]

SMILES strings stand for the structures.

Regarding `CCCCC1=NC2(CCCC2)C(=O)N1Cc1ccc(-c2ccccc2-c2nnn[nH]2)cc1` [Sample A, irbesartan], in series [1], the dissolution characteristics result is on record as “enhanced dissolution characteristics” and the dissolution kinetics entry is “significantly faster dissolution kinetics”. Moreover, in series [2], the “Water Surface Area (WSA)” value is recorded as 5.9 m^2/g, the “water surface area (ranking)” value is listed as “largest water surface areas”, the “surface hydrophilicity group predicted from the WSA data” value (shortened to “surface hydrophilicity group predicted”) is recorded as “relatively hydrophilic” and the “number of hydrophilic domains” value was “approximately twice the number of hydrophilic domains”. Further, in series [2], the “WSA compared with SSA” value was “greater than the SSA”. Further, the “Water Surface Area (WSA)” value in series [2] (listed as sample A) is on record as 5.9 m^2/g. For the same compound, the “apparent monolayer amount nmono” value in series [2] (BET model, mdry=18.57 mg) was 0.0327 mg. Also, in series [3], the “D (v, 0.1) particle size” value worked out at 1 μm; the “D (v, 0.5) particle size” value was found to be 3 μm; the “D (v, 0.9) particle size” value is on record as 12 μm.

`CCCCC1=NC2(CCCC2)C(=O)N1Cc1ccc(-c2ccccc2-c2nnn[nH]2)cc1` [Sample B, irbesartan]: the dissolution profile result in series [1] (compared with samples A and D) was “significantly poorer dissolution profile”. Besides, in series [2], the “Water Surface Area (WSA)” value is on record as 3.2 m^2/g, the “surface hydrophilicity group predicted” value was “relatively hydrophobic” and the “number of hydrophilic domains” value was “approximately a similar number of hydrophilic domains as each other”. In series [3], the “D (v, 0.1) particle size” value was found to be 1 μm; the “D (v, 0.5) particle size” value stood at 3 μm; the “D (v, 0.9) particle size” value is on record as 17 μm.

Turning to `CCCCC1=NC2(CCCC2)C(=O)N1Cc1ccc(-c2ccccc2-c2nnn[nH]2)cc1` [Sample C, irbesartan], in series [2], the “Water Surface Area (WSA)” value is on record as 3.6 m^2/g, the “surface hydrophilicity group predicted” value is given as “relatively hydrophobic”, the “number of hydrophilic domains” value is on record as “approximately a similar number of hydrophilic domains as each other” and the “WSA compared with SSA” value was “greater than the SSA”. In series [3], the “D (v, 0.1) particle size” value came to 1 μm; the “D (v, 0.5) particle size” value turned out to be 5 μm; the “D (v, 0.9) particle size” value is on record as 13 μm.

Regarding `CCCCC1=NC2(CCCC2)C(=O)N1Cc1ccc(-c2ccccc2-c2nnn[nH]2)cc1` [Sample D, irbesartan], in series [1], the dissolution characteristics result is given as “enhanced dissolution characteristics” and the dissolution kinetics result is “significantly faster dissolution kinetics”. For the same compound, in series [2], the “Water Surface Area (WSA)” value was determined as 6.5 m^2/g, the “water surface area (ranking)” value was “largest water surface areas”, the “surface hydrophilicity group predicted” value is “relatively hydrophilic” and the “number of hydrophilic domains” value is recorded as “approximately twice the number of hydrophilic domains”. In series [2], the “WSA compared with SSA” value is listed as “greater than the SSA”. In addition, in series [3], the “D (v, 0.1) particle size” value is 1 μm; the “D (v, 0.5) particle size” value is on record as 3 μm; the “D (v, 0.9) particle size” value is 7 μm.
